Test results published in patent US20150099270A1, “METHOD OF SCREENING PHARMACEUTICALS FOR DRUG INTERACTIONS AND NEPHROTOXICITY” (priority 2013, published 2015).

Key:
[1] = dogs with azotemia, p=0.025; cited from earlier work
[2] = tested on: HK-2 cells; experiment: PAH metabolism experiment in HK-2 cells (acetyl-PAH formation quantified by HPLC); format: in vitro ADME, human
Protocol: Acetyl-PAH was quantified by HPLC using a Waters 2690 Separation Module. […] The runtime was 25 minutes for all samples.
HK2 cells were grown in 15 ml of Dulbecco's Modified Eagle Medium (DMEM)/F12 media with 10% Fetal Bovine Serum (FBS) and incubated at 37° C. with 5% CO2. After 5 days of culture, each 75 cm^2 flask of cells was transferred to 2 mls of the culture media and incubated with 200 μg/ml of PAH except for the negative control where no PAH was added. Cells were incubated for 4, 8 and 18 hours each (in triplicate) with or without PAH (control). Cells post incubation were lysed via sonication for 1 minute, then centrifuged at 14,000 RPM for 10 minutes. The supernatant was extracted and acetyl-PAH was quantified by HPLC. After 5 days of culture, the HK2 cell monolayers reached confluence (FIG. 1).
• 1. HK2 cells were grown in 15 ml of Dulbecco's Modified Eagle Medium (DMEM)/F12 media with 10% Fetal Bovine Serum (FBS) and incubated at 37° C. with 5% CO2. […]
Acetyl-PAH was quantified by HPLC using a Waters 2690 Separation Module. […] Quantification of acetyl-PAH formation was determined by calculating the area under the curve for each sample time-point, and determining the cumulative appearance over the entire incubation period (up to 18 hours).

[3] = human, in vivo
Text: The purpose of this study is to quantify plasma and urinary acetyl-PAH as a measure of tubular function, in the presence of simultaneous measurement of GFR (iothalamate clearance) in healthy subjects. […] Subjects receiving drugs known to interfere with tubular secretion based on a current review of available literature, or a history of known allergic or adverse reactions to diagnostic iodine containing compounds including iothalamate, or PAH were excluded. Subjects with preexisting liver disease (including hepatitis), increased INR, liver transaminases (AST/ALT), bilirubin, serum albumin<3.0 g/dL. Iothalamate (Conray®, Mallinkrodt), and PAH (Merck) infusions were prepared on the morning of the study visit.
On the study day, each subject reported to the General Clinical Research Unit (GCRC) by 8:00 AM on study visit days. A 6-mL blood sample was be obtained for biochemistries (BUN, serum creatinine) and a spot urine sample was obtained for protein:creatinine ratio. Vital signs (heart rate, blood pressure, respiratory rate) were recorded half-hourly throughout each study visit. Subjects had intravenous catheters inserted into forearm veins of each arm for blood collection and intravenous infusion of iothalamate and PAH. […]
Throughout the study, all blood samples were collected in heparinized (green top) tubes, placed on ice immediately, centrifuged within 15 minutes (4,000 RPM), split into 2 plasma aliquots and frozen at −20° C. until analyzed. […] Urine was be placed on ice immediately after collection, and three 8 mL aliquots were frozen at −20° C. until analyzed. The total volume of urine was measured for each collection interval. A 5 mL aliquot of each IV infusate was collected and frozen at −20° C. until analyzed.
Iothalamate and PAH: Iothalamate and PAH concentrations in plasma and urine will be determined using an HPLC assay method developed in our laboratory. […] Separation is achieved using a C18 column, and effluent is monitored at a wavelength of 254 ηm. […]

metabolism of PAH to acetyl-PAH ([2]; HK2 cells, 200 μg/ml PAH, 4, 8 and 18 hours)	Rsec (total rate of tubular secretion) [3]	mean (±SD) naPAH metabolite concentration ([2]; HK-2 cells incubated with PAH, HPLC)	SMILES	renal extraction [1]	appearance of acetyl-PAH metabolite in urine and plasma [3]
time dependent fashion	382 ± 154 mL/min		Nc1ccc(C(=O)NCC(=O)O)cc1 [PAH, Para-aminohippuric acid]	0.57	
			CC[N+](CC)(CC)CC [TEA, tetraethylammonium]	0.80	
	581 ± 191 mL/min	increased over time	CC(=O)Nc1ccc(C(=O)NCC(=O)O)cc1 [acetyl-PAH, 2-[(4-acetamidobenzoyl)amino]acetic acid]		appears in high quantities in the urine and plasma
